Data published in patent US20140356293A1, “FLUORESCENT COMPOSITIONS WITH ENHANCED FLUORESCENCE AND METHODS BASED THEREON” (The Research Foundation of the State University o New York, priority 2012, published 2014).
Values joined by “and” are separate entries in the source; they are usually repeats but may differ in a detail not shown here. Equal entries are not always repeated. Where two headings read alike, the source gives them in different places.

Key:
[1] = in vivo; cited from earlier work
[2] = Aqueous ICG preparation used to image the urinary tract of rats; type: physicochemical; settings: aqueous solution 2.5 mg/ml diluted
Protocol: ICG used to image the urinary tract of rats was prepared according to package insert instructions (aqueous solution 2.5 mg/ml) and diluted to 10 μg/ml to achieve peak fluorescence. It was observed that the fluorescence of these preparations was not as intense as that achieved when ICG was injected intravenously and diluted into the blood.

[3] = Relative fluorescence intensity of ICG formulations in Petri dishes, NIRF imaging system; type: physicochemical; settings: for maximum fluorescent intensity: 5 μg/ml ICG
Protocol: Real-time near-infrared fluorescent (NIRF) imaging was accomplished using a NIRF imaging system. The ring light was coupled to a tungsten halogen source filtered with a Chroma excitation filter (775 nm). The Navitar Zoom 7000 lens was fitted with a Chroma emission filter (845 nm). Images were captured with a Qimaging Retiga camera. Petri dishes (35 mm diameter) were positioned in the imaging system that contained 2 ml of a sample of an enhanced fluorescent composition comprising ICG. This system was used in the investigations of ICG fluorescence enhancement described in this example. Excitation light was delivered to the field of interest using a fiber optic ring light coupled to a tungsten halogen source (Illumination Technologies, Inc. IT 9596-ER) filtered with a 775 nm bandpass filter (Chroma Technologies). A Navitar Zoom 7000 Lens was fitted on a Qimaging Retiga EXi cooled CCD camera.
Indocyanine Green (ICG) stock solutions were prepared by adding 10 ml of diluent to a 25 mg vial of IC Green (Akorn Incorporated). Diluents were water (supplied by the manufacturer), ethanol, or dimethyl sulfoxide (DMSO).
Milk solutions were prepared by dissolving Instant Nonfat Dry Milk (Nestle Carnation) in water at various concentrations up to 30% weight to volume
To prepare ICG-based enhanced fluorescent compositions, ICG stock solutions were added to achieve concentrations up to 250 μg/ml. Relative fluorescence intensity of various formulations was measured in 35 mm circular Petri dishes containing 2 ml. A floating toothpick provided a focusing target.
Intralipid formulations were prepared from Intralipid 20% (Fresenius Kabi), which is a sterile non-pyrogenic fat emulsion prepared for intravenous administration for parenteral nutrition. Intralipid is also a vehicle for intravenous (i.v.) delivery of propofol, and is used as an antidote for acute local anesthetic toxicity. It is a white opaque liquid containing 20% soy bean oil, egg phospholipids, glycerin, and water. ICG stock solutions were added to achieve a range of concentrations of ICG up to 250 μg/ml in the enhanced fluorescent composition.
Stock aqueous ICG solution was diluted into 10, 20, and 30% milk to achieve 1, 5, 10, and 20 μg/ml final concentrations. Fluorescent images of 2 ml of each preparation in 35 mm Petri dishes were acquired using QCapture and quantified using ImageJ.
[…] […] The ICG in DMSO (“ICG/DMSO”) stock solution was diluted into Enfamil and fluorescence intensity measured.
Intralipid is milk-like in its appearance and the major ingredient is 20% soy bean oil. Because Intralipid is approved for human intravenous use, a series of diluted solutions was prepared from the ICG/DMSO stock solution.
In the work summarized in FIG. 9, solutions of ICG were prepared in DMSO, water, or ethanol at 2.5 mg/ml and then diluted to the indicated concentrations across the top of the figure in the diluents listed down the left side. The DMSO and ethanol diluents were diluted with water. Two ml of each solution was transferred to a Petri dish and imaged as described herein in an NIRF imaging system. […] Also imaged were the same ICG concentrations in 5% ethanol and water. […] The use of ethanol and DMSO in pharmaceuticals is limited by the toxicity of these compounds.

[4] = Stability of ICG fluorescence (storage of stock solutions; constant illumination); type: physicochemical
Protocol: A vial of ICG containing 2.5 mg of ICG was dissolved into 10 ml of DMSO. […] Aqueous solutions fade rapidly. The ICG in DMSO (“ICG/DMSO”) stock solution was diluted into Enfamil and fluorescence intensity measured. […] The DMSO concentration at the peak fluorescence was 0.3%. Thus enhancement of fluorescence intensity was similar to that observed with use of reconstituted nonfat dry milk.
With respect to FIG. 12, a solution of ICG in Enfamil (8 μg/ml) in a Petri dish was positioned in the imaging system. With constant illumination the fluorescence image was captured every 10 seconds for 22 minutes.

[5] = cited from earlier work

ICG concentration to achieve peak fluorescence [2]: 10 µg/mL
maximum fluorescent intensity ([3]; 10% milk, arbitrary units of integrated density): about 950000 IntDen
maximum fluorescent intensity ([3]; 20% milk): about 1000000 IntDen
maximum fluorescent intensity ([3]; 30% milk): about 1150000 IntDen
Dependence of fluorescence on milk concentration ([3]; 10, 20, 30% milk): increased with milk concentration
Fluorescence intensity versus ICG concentration ([3]; 25% DMSO in water, FIG. 9): increased from 1 to 100 μg/ml
ICG concentration at which imaging system was fully saturated ([3]; 100% DMSO, FIG. 9): 12.5 µg/mL
ICG concentration at peak fluorescence ([3]; ICG in DMSO diluted into Enfamil, Example 2, FIG. 10): around 8 μg/ml
ICG concentration at peak fluorescence ([3]; ICG in DMSO diluted into Intralipid, exposure time reduced from 90 to 70 ms, Example 2, FIG. 10): 8 µg/mL
ICG concentration at peak fluorescence ([3]; ICG/DMSO stock (2.5 mg/ml) diluted into Enfamil, final DMSO 0.3%, Example 1, FIG. 5): 7.8 µg/mL
ICG concentration at peak fluorescence ([3]; aqueous ICG stock diluted into 10, 20 and 30% reconstituted nonfat dry milk, 1, 5, 10, 20 μg/ml tested): 5 µg/mL
ICG concentration at which quenching occurred ([3]; in 10, 20 and 30% reconstituted dry milk): ≥ 10 µg/mL
ICG concentration at which fluorescence decreased (quenched) ([3]; in Enfamil, FIG. 9): 50 µg/mL and 100 µg/mL
Fluorescence of ICG diluted into water or saline ([3]; same imaging conditions as milk preparations): no detectable fluorescence
Persistence of fluorescence of aqueous solutions [4]: fade rapidly
Compound: CC1(C)C(/C=C/C=C/C=C/C=C2\N(CCCCS(=O)(=O)O)c3ccc4ccccc4c3C2(C)C)=[N+](CCCCS(=O)(=O)[O-])c2ccc3ccccc3c21 [ICG, Indocyanine green]
Route of excretion [1]: excreted exclusively in the bile
Fluorescence intensity versus ICG concentration ([3]; 100% ethanol, FIG. 9): lower than in DMSO but increased up to 100 μg/ml
Maximum fluorescence wavelength ([5]; in blood): approximately 830 nm
maximum absorption ([5]; in plasma at low concentrations): ~800 nm
Maximum fluorescence wavelength ([5]; in water): approximately 810 nm
